The IC50 is the point on the concentration scale where inhibition reaches its midpoint.

In one assay the test system is U87-MG. The assay can be described thus: MTS cell viability assay. As to conditions: Homo sapiens, U-87 MG. The assay is classed as cell-based. The procedure: (§1) Cell viability was tested by MTS assay (Promega, USA). 8000 cells were seeded in a 96-well plate and then treated with compounds for 72 h, followed by the addition of 20 μL of MTS and incubation at 37 °C for 2–3 h. Absorbance at 490 nm is measured with the SpectraMax 190 plate reader, and the IC50 value is calculated by GraphPad Prism. In the drug combination assay, combination index (CI) values were calculated using CalcuSyn software. A CI value greater than 1 has a drug antagonistic effect, and a value less than 1 has a synergistic effect.

A further assay relates to SF268. The assay can be described thus: MTS cell viability assay. The assay is classed as cell-based. To be noted: Homo sapiens, SF-268. The procedure: as §1
A further assay relates to U251. The assay can be described thus: MTS cell viability assay. In kind it is cell-based. As to conditions: Homo sapiens, U-251. As for the experimental part: as §1
(Formazan colour is commonly taken as a measure of viable cells.)

The target of the next assay is T1, BCL6^BTB (Homo sapiens, UniProt P41182).
T1 construct: expressed in transfected cells
The assay can be described thus: Luciferase reporter assay, BCL6-BTB-mediated transcriptional repression. The assay is classed as cell-based. To be noted: even at 20 μM.

Assay [1] addresses BCL6^BTB/SMRT interaction (Homo sapiens, UniProt P41182). The assay can be described thus: HTRF assay, BCL6-BTB/SMRT interaction. In kind it is binding. On the technique in general: Time-resolved FRET reads energy transfer from a long-lived donor to a nearby acceptor.
A further assay concerns the target T2, eGFP-BCL6 (FL) (Homo sapiens, UniProt P41182).
T2 construct: a gene encoding the full-length BCL6 protein fused to eGFP; expressed in transfected cells; host or cells: HEK293T
Kind of assay: BCL6-eGFP-mCherry stability reporter in HEK293T cells. In kind it is cell-based. To be noted: 1 μM.

Another assay concerns U87-MG-Luc xenograft. The assay can be described thus: Intracranial (orthotopic) U87-MG-Luc GBM xenograft. In kind it is in vivo, BALB/c nude mice. To be noted: TMZ 5 mg/kg, YK01 12.5 mg/kg, intraperitoneally. An excerpt:
An orthotopic U87-MG GBM-bearing mouse model of BALB/c nude mice was created. Five microlitres of U87-MG-Luc cells (1 × 10^5 cells) were implanted into the left striatum of anaesthetized animals. The burr hole was then filled with bone wax, and the scalp was closed with tissue glue. To assess the growth of the glioma, bioluminescence imaging (in vivo imaging system, Lumina III) was used to determine its size. […]

Another assay has as its system BCL6. The assay can be described thus: Western blotting of BCL6 after TMZ treatment. In kind it is cell-based. As to conditions: U251, SF268, U87-MG, 24 h. The procedure: Cell lines were treated with drugs, and tumor tissues were collected in a Ripa lysis buffer. Western blotting was performed using antibodies against BCL6 (14895S, Cell Signaling Technology), PARP (poly(ADP-Ribose) polymerase; 9532S, Cell Signaling Technology), γH2AX (phosphorylated form of H2A.X variant histone; 9718S, Cell Signaling Technology), phospho-ERK (4370S, Cell Signaling Technology), ERK (extracellular signal-regulated kinase; 4695T, Cell Signaling Technology), phospho-AKT (4060S, Cell Signaling Technology), AKT (9272S, Cell Signaling Technology), GAPDH (AB0036, ABWAYS), BCL2 (T40056F, ABWAYS), c-MYC (CY5150, ABWAYS).
In general terms: A western blot detects proteins with antibodies after separation by electrophoresis.

Take `O=C(O)CCN1C(=O)/C(=C2/C(=O)Nc3ccc(Cl)cc32)SC1=S` [FX1]: the 50% inhibitory concentration (IC50) amounted to 32 ± 1.12 µM with U87-MG, 43.9 ± 1.23 µM with SF268 and 37.4 ± 1.41 µM in the assay with U251.

On to `CNC(=O)COc1cc2cc(Nc3nc(N4C[C@H](C)C[C@H](C)C4)ncc3Cl)ccc2n(C)c1=O` [BI3802], for which the “effect on BCL6^BTB” value at BCL6^BTB was “little effect”. Also, in assay [1], half-maximal inhibition (IC50) was put at 0.0027 µM. Further, at eGFP-BCL6 (FL), the “effect on eGFP-BCL6 (FL) reporter” value is reported as “degradation”.

Take `Cn1nnc2c(C(N)=O)ncn2c1=O` [TMZ, temozolomide]: the “U87-MG-luci xenograft growth (bioluminescence)” value with U87-MG-Luc xenograft was “improved”. In addition, the BCL6 expression result in the assay on BCL6 was “up-regulated”.
